Tests used:
isolated monocytes = experiment: Factors released by monocytes after MUC1-ST treatment (protein array, ELISA); format: cell-based, human; settings: 100 μg/10^6 cells MUC1-ST, 48 hours
Procedure: ELISAs for IL-6, IL-12p70, TGF-β1, PAI-1, M-CSF, EGF, SHP2, phospho-SHP2 (Biotechne) were all carried out as per manufacturer's instructions.
Recombinant MUC1-ST was bound to monocytes and the factors released determined using a protein array as follows. Briefly, isolated monocytes were treated with 100 μg/10^6 cells MUC1-ST for 4 hours at 4° C., washed and incubated at 37° C. for 48 hours in AIM-V serum-free media. Supernatant was taken and cytokine production was assessed using a 102 protein array (Bio-Techne).

[1] = tested on: M-CSF macrophages differentiated with LPS and IFNγ; experiment: Differentiation of monocytes into M(LPS+IFNγ) macrophages: CD86 and IL-12; format: cell-based, human; settings: MUC1-ST added at day 1 of the culture
Procedure: Both the cell phenotype staining and neutralization studies described in the Examples were performed using the following antibodies (all anti-human): Siglec-9 (Biotechne; 191240), Siglec-9 FITC (Biotechne; 191240), Siglec-3 (Biotechne; 6C5/2), Siglec-7 (Biotechne; AF1138), Siglec-3 FITC (BD; P67.6), Siglec-7 PE (Biolegend; 6-434), Siglec-10 PE (Biolegend; 5G6), Siglec-1 (abcam; 7D2), HLA-DR FITC (Beckman Coulter; IM0463U), CD16 FITC (Biolegend; B73.1), CD14 FITC (BD 555397), CD69 PE (Beckman Coulter; IM1943), CD25 FITC (ABX228FITC), CD86 PE (Beckman Coulter; IM2729U), CD40 FITC (BD 555588), CD83 PE (Beckman Coulter; IM2218), CD163 PE (Biolegend; GHI/61), CXCR1 FITC (BD Pharmongen; 551126), CD45 PC5 (Beckman Coulter; IM2653U), CD206 PE (ebioscience; 19.2), PD-L1 PE (Biolegend; 29E.2A3), CD36 (Santa Cruz; H-300), TGFbetaRII (Bio-Techne; AF-241), IL-6Rα (Tocilizumab; Roche. A generous gift from Dr. Valerie Corrigall). […] At least 1×10^4 events were evaluated using either Epics XL, (Beckman Coulter) or FACSCalibur (BD Biosciences) flow cytometers. […]
Given that IL-6 and NO are known differentiation modulators (Oosterhoff et al. (2012) ONCOIMMUNOLOGY 1: 649-658; Bogdan (2015) TREND IMMUNOL. 36: 161-178) the effects of MUC1-ST on the differentiation of monocytes into macrophages was assessed. […]

monocytes from PBMCs = experiment: MUC1-ST mediated TAM formation in monocytes from PBMCs, 7 day serum-free culture; format: cell-based, human
Procedure: To further explore the role of MUC1-ST in inducing a TAM-like phenotype, monocytes from PBMCs were plated in serum-free medium, incubated with MUC1-ST or PBS, and cultured for 7 days.
Intracellular calcium flux can lead to activation of the MEK/ERK pathway (Christo et al. (2015) IMMUNOL. AND CELL BIOLOGY 93: 694-704). […] Furthermore, treatment with the MEK inhibitor PD98059 at 10 μM inhibited MUC1-ST mediated TAM formation in monocytes (FIGS. 12B, 12D-12E).

[2] = tested on: indoleamine 2,3-dioxygenase (IDO); experiment: IDO mRNA in monocyte-derived macrophages (qRT-PCR); format: cell-based, human; settings: macrophages differentiated with GM-CSF or M-CSF
SHP1 = experiment: Western blot for phosphorylation of SHP1 in monocytes; format: cell-based, human; settings: primary monocytes
Procedure: A Western blot to assay phosphorylation of SHP, which is recruited by phosphorylated Siglec-9 (Avril et al. (2004) supra) was conducted. Monocytes were incubated with MUC1-ST and lysed as described above, and the resulting lysates were separated by SDS PAGE (10% gel) before being transferred, blocked and probed with anti-SHP1 (Santa Cruz), anti-phospho SHP1 (Abcam) and appropriate secondary antibodies. Phosphorylation of SHP was not observed after MUC1-ST binding to Siglec-9 on primary monocytes (FIG. 13C) although again, phosphorylation of SHP1 was observed when Siglec-9 was activated via antibody cross-linking. No activation of SHP2 was observed.

Siglec-9 = Siglec-9 (Homo sapiens, UniProt Q9Y336); experiment: MUC1-ST binding to monocytic cell lines THP-1 and U937, with or without blocking antibody; format: cell-based; design: endogenous in cells; host or cells: THP-1 and U937 cells; settings: time and concentration dependent
Sequence of Siglec-9 (Q9Y336 18-463): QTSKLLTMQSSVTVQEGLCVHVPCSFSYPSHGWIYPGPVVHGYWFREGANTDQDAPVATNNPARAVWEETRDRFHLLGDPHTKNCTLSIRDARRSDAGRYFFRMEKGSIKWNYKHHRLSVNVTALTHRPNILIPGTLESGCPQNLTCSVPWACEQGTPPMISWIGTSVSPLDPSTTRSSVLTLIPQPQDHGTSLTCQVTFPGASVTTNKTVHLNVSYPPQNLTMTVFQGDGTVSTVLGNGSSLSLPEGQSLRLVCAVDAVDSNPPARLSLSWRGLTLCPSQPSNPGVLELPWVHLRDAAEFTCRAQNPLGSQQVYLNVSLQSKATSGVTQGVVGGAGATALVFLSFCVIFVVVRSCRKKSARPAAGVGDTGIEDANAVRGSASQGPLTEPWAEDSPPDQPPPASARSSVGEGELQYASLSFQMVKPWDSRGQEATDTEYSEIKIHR
Procedure: Unless indicated otherwise, all binding experiments using purified immune cell subsets and biotinylated purified recombinant tumor-associated MUC1 glycoforms were performed as follows. 1×10^5 isolated/differentiated cells at 5×10^5 cells per mL were incubated for 4 hours on ice with 10 μg of the appropriate biotinylated recombinant MUC1 glycoform in 0.5% BSA in PBS. Cells were washed in 0.5% BSA in PBS before 1:200 SAPE (Life Technologies) was added for 30 minutes on ice. Cells were washed and analysed by flow cytometry or fluorescent microscopy (after cytospin), using streptavidin-PE (SAPE) as a label.

Substance: NeuAcα2,3Galβ1-3GalNAc linked via a Ser/Thr of MUC1 [MUC1-ST]
- secretion of factors associated with inflammation and tumor progression (IL-6, M-CSF, PAI-1 validated by ELISA) (isolated monocytes): induced
- levels of CD86 and IL-12 [1]: lower levels
- expression of ECM component collagen type I (monocytes from PBMCs): increased expression
- percentage of live macrophages in the culture (monocytes from PBMCs; 7 days, serum-free medium): increased
- expression of TAM markers such as CD206 and PD-L1 (monocytes from PBMCs; flow cytometry): increased expression
- increase in expression of mRNA encoding IDO [2]: 10-25 fold
- phosphorylation of SHP (SHP1): not observed
- binding to cells (Siglec-9): found to bind

Reference: patent US20190211099A1, “METHODS AND COMPOSITIONS FOR TREATING CANCER WITH SIGLEC-9 ACTIVITY MODULATORS” (KING'S COLLEGE LONDON, priority 2016, published 2019)
